The values below come from patent publication US9975888B2, “Aryl linked imidazole and triazole derivatives and methods of use thereof for improving the pharmacokinetics of a drug” (MERCK SHARP & DOHME CORP., priority 2013, dated 2018).

Assay type in all cases: biochemical
Test [1] has as its target T1, CYP3A4 (Homo sapiens, UniProt P08684). Kind of test: IC50 vs CYP3A by inhibition of lopinavir metabolism in human liver microsomes. More on the design: 0.01 mg/mL protein human liver microsomes (BD Gentest); tissue BD Gentest; host or cells: human liver microsomes. As to conditions: 1.5 μM lopinavir, 0.01 mg/mL human liver microsomes, 8 min at 37° C.; read-out: CYP IC50 (nM) 3A4 (LPV). An outline of the steps: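 Human liver microsomes (0.01 mg/mL) with 1.5 μM lopinavir, 1 mM NADPH, 3.3 mM MgCl2 in 100 mM potassium phosphate pH 7.4, 8 min at 37 °C, six compound concentrations. Summed M2/M3/M4 hydroxy metabolites quantified by LC/MS/MS against tolbutamide; % inhibition normalised between no-inhibitor and 5 μM ketoconazole controls, IC50 by non-linear regression.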
Target sequence in this assay (P08684 2-503): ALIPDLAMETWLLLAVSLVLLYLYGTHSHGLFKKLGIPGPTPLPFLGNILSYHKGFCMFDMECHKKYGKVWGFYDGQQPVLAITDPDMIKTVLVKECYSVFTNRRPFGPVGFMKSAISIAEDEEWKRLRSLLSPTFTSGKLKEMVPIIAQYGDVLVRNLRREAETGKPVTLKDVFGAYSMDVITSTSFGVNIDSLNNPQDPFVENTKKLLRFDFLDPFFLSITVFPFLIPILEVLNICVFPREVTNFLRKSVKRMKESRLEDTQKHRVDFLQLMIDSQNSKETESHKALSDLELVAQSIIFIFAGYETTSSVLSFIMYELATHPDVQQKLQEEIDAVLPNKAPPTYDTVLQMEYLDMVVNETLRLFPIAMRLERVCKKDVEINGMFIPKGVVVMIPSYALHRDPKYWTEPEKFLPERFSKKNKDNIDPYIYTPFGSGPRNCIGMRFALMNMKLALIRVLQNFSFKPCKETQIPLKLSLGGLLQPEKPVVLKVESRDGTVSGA

For test [2], the target named is T2, CYP2D6 (Homo sapiens, UniProt P10635).
T2 construct: 0.1 mg/mL protein human liver microsomes (BD Gentest); tissue BD Gentest; host or cells: human liver microsomes
The test is described as follows: Cocktail assay for CYPs, dextromethorphan O-demethylation (CYP2D6), human liver microsomes. Conditions: 5 μM dextromethorphan, 0.1 mg/mL human liver microsomes, 10 min at 37° C.; read-out: CYP IC50 (nM) 2D6. An outline of the steps: (§1)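 Pooled human liver microsomes (0.1 mg/mL) with a probe cocktail of 10 μM phenacetin, 5 μM dextromethorphan and 2 μM midazolam plus NADPH, pH 7.4, 10 min at 37° C. Each metabolite was quantified by LC/MS/MS against a tolbutamide internal standard. IC50 came from % inhibition at 6 concentrations (e.g. 0.0032–10 μM) by non-linear regression.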

Test [3] concerns the target T3, CYP2C19 (Homo sapiens, UniProt P33261).
T3 construct: 0.1 mg/mL protein human liver microsomes (BD Gentest); tissue BD Gentest; host or cells: human liver microsomes
The test is described as follows: Cocktail assay for CYPs, mephenytoin 4′-hydroxylation (CYP2C19), human liver microsomes. As to conditions: 30 μM mephenytoin, 0.1 mg/mL human liver microsomes, 10 min at 37° C.; read-out: CYP IC50 (nM) 2C19. The method in brief: (§2)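 Pooled human liver microsomes (0.1 mg/mL) with probe cocktail incl. 5 μM diclofenac (CYP2C9) and 30 μM mephenytoin (CYP2C19), 1 mM NADPH, pH 7.4 phosphate buffer, 10 min at 37° C. Metabolites quantified by LC/MS/MS against internal standard; % inhibition versus no-inhibitor control, IC50 by non-linear regression.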

The target of test [4] is T4, CYP2C9 (Homo sapiens, UniProt P11712).
T4 construct: 0.1 mg/mL protein human liver microsomes (BD Gentest); tissue BD Gentest; host or cells: human liver microsomes
The test is described as follows: Cocktail assay for CYPs, diclofenac 4′-hydroxylation (CYP2C9), human liver microsomes. Conditions: 5 μM diclofenac, 0.1 mg/mL human liver microsomes, 10 min at 37° C.; read-out: CYP IC50 (nM) 2C9. The method in brief:
as §2

Test [5] concerns the target T5, CYP1A2 (Homo sapiens, UniProt P05177).
T5 construct: 0.1 mg/mL protein human liver microsomes (BD Gentest); tissue BD Gentest; host or cells: human liver microsomes
T5 sequence (P05177 1-516): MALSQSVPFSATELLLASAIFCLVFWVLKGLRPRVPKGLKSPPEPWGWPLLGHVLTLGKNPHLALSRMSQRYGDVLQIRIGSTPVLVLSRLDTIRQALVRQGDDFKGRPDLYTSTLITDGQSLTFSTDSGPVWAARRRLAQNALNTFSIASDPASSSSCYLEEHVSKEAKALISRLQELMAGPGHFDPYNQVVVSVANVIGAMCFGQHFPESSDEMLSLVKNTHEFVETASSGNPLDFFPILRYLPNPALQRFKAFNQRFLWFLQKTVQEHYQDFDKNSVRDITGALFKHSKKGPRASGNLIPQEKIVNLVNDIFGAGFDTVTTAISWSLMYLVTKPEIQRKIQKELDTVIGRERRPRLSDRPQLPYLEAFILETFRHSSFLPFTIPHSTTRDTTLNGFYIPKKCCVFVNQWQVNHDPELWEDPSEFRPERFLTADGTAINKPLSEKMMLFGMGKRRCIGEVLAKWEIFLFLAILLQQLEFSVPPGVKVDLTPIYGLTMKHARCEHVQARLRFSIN
Kind of test: Cocktail assay for CYPs, phenacetin O-deethylation (CYP1A2), human liver microsomes. As to conditions: 10 μM phenacetin, 0.1 mg/mL human liver microsomes, 10 min at 37° C.; read-out: CYP IC50 (nM) 1A2. The method in brief: as §1

The target of test [6] is T1, CYP3A4. The test is described as follows: Cocktail assay for CYPs, midazolam 1′-hydroxylation (CYP3A4), human liver microsomes. More on the design: 0.1 mg/mL protein human liver microsomes (BD Gentest); tissue BD Gentest; host or cells: human liver microsomes. As to conditions: 2 μM midazolam, 0.1 mg/mL human liver microsomes, 10 min at 37° C.; read-out: CYP IC50 (nM) 3A4 (MDZ). An outline of the steps: as §1
Target sequence in this assay (P08684 whole entry): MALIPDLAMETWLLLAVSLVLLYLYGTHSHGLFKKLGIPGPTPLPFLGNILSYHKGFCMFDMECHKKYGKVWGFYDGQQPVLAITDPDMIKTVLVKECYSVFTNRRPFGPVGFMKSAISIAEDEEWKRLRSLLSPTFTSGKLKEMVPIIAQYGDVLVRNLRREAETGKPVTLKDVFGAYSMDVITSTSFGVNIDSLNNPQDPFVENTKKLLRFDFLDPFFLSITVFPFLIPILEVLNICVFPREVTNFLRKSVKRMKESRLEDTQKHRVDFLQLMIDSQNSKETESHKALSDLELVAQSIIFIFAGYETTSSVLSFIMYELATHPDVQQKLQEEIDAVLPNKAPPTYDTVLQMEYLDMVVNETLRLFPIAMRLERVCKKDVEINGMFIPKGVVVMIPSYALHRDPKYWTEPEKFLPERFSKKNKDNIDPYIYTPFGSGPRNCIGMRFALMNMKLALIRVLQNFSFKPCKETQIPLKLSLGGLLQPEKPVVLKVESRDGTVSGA

T2 sequence (P10635 whole entry): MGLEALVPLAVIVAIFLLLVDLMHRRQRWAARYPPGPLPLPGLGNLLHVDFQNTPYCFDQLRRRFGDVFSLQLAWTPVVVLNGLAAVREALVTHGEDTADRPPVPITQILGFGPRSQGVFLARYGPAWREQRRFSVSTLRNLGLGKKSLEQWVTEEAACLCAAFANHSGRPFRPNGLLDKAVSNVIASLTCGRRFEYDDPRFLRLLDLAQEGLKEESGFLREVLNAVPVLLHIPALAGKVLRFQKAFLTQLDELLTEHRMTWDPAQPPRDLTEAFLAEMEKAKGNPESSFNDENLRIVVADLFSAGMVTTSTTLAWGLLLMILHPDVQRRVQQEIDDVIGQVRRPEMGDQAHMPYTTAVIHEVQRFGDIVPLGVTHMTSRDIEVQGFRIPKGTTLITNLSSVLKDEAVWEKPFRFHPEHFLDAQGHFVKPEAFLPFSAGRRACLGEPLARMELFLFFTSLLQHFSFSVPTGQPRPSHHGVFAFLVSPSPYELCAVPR
T4 sequence (P11712 whole entry): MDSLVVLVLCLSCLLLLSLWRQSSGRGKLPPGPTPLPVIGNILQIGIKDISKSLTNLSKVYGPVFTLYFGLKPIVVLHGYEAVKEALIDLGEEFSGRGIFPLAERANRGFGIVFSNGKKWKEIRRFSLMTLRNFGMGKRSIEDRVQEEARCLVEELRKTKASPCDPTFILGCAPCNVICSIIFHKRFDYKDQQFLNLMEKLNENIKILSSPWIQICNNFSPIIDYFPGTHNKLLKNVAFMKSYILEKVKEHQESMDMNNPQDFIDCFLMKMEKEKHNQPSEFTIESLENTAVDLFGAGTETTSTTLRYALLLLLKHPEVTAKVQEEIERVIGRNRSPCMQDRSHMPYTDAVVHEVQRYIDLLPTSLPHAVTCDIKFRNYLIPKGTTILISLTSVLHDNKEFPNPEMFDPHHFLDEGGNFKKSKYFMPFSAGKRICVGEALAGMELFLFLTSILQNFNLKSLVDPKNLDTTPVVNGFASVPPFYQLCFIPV
T3 sequence (P33261 whole entry): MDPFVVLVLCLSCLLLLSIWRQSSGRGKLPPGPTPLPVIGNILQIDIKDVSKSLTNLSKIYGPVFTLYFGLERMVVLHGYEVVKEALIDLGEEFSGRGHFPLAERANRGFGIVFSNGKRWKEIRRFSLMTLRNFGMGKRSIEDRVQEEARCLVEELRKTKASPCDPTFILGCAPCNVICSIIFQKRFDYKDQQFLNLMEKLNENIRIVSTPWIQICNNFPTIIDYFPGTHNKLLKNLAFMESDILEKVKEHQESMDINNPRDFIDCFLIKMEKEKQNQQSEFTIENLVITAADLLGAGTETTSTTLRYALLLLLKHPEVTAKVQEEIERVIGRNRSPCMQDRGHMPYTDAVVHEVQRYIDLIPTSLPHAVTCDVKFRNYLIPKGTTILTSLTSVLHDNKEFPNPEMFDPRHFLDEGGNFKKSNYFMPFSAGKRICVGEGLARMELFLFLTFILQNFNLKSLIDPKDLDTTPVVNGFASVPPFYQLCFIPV

Turning to `CN1CCN(c2ncc(S(=O)(=O)N3CCc4c(ncnc4-c4cncn4CCc4ccc(F)cc4)C3)s2)CC1` [Compound 67, 5-((4-(1-(4-fluorophenethyl)-1H-imidazol-5-yl)-5,6-dihydropyrido[3,4-d]pyrimidin-7(8H)-yl)sulfonyl)-2-(4-methylpiperazin-1-yl)thiazole], the IC50 in test [1] was more than 100 nM; in test [2], 6510 nM; in test [3], more than 10000 nM; in test [4], more than 10000 nM; in test [5], more than 10000 nM; in test [6] it was 123 nM.
With `O=C(c1ccc(N2CCOCC2)nc1)N1CCCC1c1ccccc1-c1cncn1CCc1ccc(F)cc1` (single isomer, unassigned) [Compound 43b, (R or S)-(2-(2-(1-(4-fluorophenethyl)-1H-imidazol-5-yl)phenyl)pyrrolidin-1-yl) (6-morpholino-pyridin-3-yl) methanone], the IC50 in test [1] is 2 nM; in test [2], 5360 nM; in test [3], more than 10000 nM; in test [4], 7950 nM; in test [5], 4490 nM; in test [6], 5.8 nM.
With `O=S(=O)(c1cnc(Cl)c(Br)c1)N1CCCC1c1cccc(-c2cncn2CCc2ccc(F)cc2)c1` (stereo not drawn) [Compound 54, 3-Bromo-2-chloro-5-((2-(3-(1-(4-fluorophenethyl)-1H-imidazol-5-yl)phenyl)pyrrolidin-1-yl)sulfonyl) pyridine], the IC50 was found to be 3.2 nM in test [1]; 1150 nM in test [2]; 109 nM in test [3]; 422 nM in test [4]; 1240 nM in test [5]; 13.9 nM in test [6].
`CS(=O)(=O)N1CCCC1c1cccc(-c2cncn2CCc2ccc(F)cc2)c1` (stereo not drawn) [Compound 51, 1-(4-fluorophenethyl)-5-(3-(1-(methylsulfonyl)pyrrolidin-2-yl)phenyl)-1H-imidazole]: the IC50 in test [1] turned out to be 34.7 nM; in test [2] it was 6780 nM; in test [3], 2110 nM; in test [4], 4640 nM; in test [5], 1160 nM; in test [6], 22.6 nM.
On to `CN1CCN(c2ncc(S(=O)(=O)N3Cc4cccc(-c5cncn5CCc5ccc(F)cc5)c4C3)s2)CC1` [Compound 16, 5-((4-(1-(4-fluorophenethyl)-1H-imidazol-5-yl)isoindolin-2-yl)sulfonyl)-2-(4-methylpiperazin-1-yl)thiazole], for which the IC50 was 9.5 nM in test [1]; 360 nM in test [2]; 1260 nM in test [3]; 486 nM in test [4]; 3100 nM in test [5]; 13.2 nM in test [6].
As to `O=S(=O)(c1ccc(NCC(O)C2CC2)nc1)N1CCCC1c1ccccc1-c1cncn1CCc1ccc(F)cc1` (single isomer, unassigned) [Compound 34b, 1-cyclopropyl-2-((5-(((R or S)-2-(2-(1-(4-fluorophenethyl)-1H-imidazol-5-yl)phenyl)pyrrolidin-1-yl)sulfonyl)pyridin-2-yl)amino)ethanol], the IC50 in test [1] is 1 nM; in test [2] it was 2420 nM; in test [3], 4400 nM; in test [4], 1900 nM; in test [5] it was more than 10000 nM; in test [6] it was 5.5 nM.
`CN1CCN(c2ncc(S(=O)(=O)N3CCc4c(-c5cncn5CCc5ccc(F)cc5)ccnc4C3)s2)CC1` [Compound 66, 5-((4-(1-(4-fluorophenethyl)-1H-imidazol-5-yl)-5,6-dihydro-1,7-naphthyridin-7(8H)-yl)sulfonyl)-2-(4-methylpiperazin-1-yl)thiazole]: the IC50 in test [1] was 23.8 nM; in test [2] it was more than 10000 nM; in test [3], more than 10000 nM; in test [4], more than 10000 nM; in test [5] it was 2680 nM; in test [6] it was 22.4 nM.
For `CC(=O)Nc1ncc(S(=O)(=O)N2CCCC2c2ccccc2-c2cncn2C2CC2)s1` (stereo not drawn) [Compound 31, N-(5-((2-(2-(1-cyclopropyl-1H-imidazol-5-yl)phenyl)pyrrolidin-1-yl)sulfonyl)thiazol-2-yl) acetamide], the IC50 in test [1] was 25.4 nM; in test [2] it was more than 10000 nM; in test [3] it was more than 10000 nM; in test [4], more than 10000 nM; in test [5] it was more than 10000 nM; in test [6] it was 25.4 nM.
On to `CN(C)c1ccc(S(=O)(=O)N2CCc3c(cccc3-c3cncn3CCc3ccc(F)cc3)C2)cn1` [Compound 61, 5-((5-(1-(4-fluorophenethyl)-1H-imidazol-5-yl)-3,4-dihydroisoquinolin-2(1H)-yl)sulfonyl)-N,N-dimethyl-pyridin-2-amine], for which the IC50 in test [1] was determined as 1.4 nM; in test [2], 3250 nM; in test [3], 65 nM; in test [4], 1050 nM; in test [5], 4620 nM; in test [6], 7.6 nM.
`O=S(=O)(c1ccc(N2CCC(O)CC2)nc1)N1CCCC1c1cccc(-c2cncn2CCc2ccc(F)cc2)c1` (single isomer, unassigned) [Compound 57a, (R or S)-1-(5-((2-(3-(1-(4-fluorophenethyl)-1H-imidazol-5-yl)phenyl)pyrrolidin-1-yl)sulfonyl)pyridin-2-yl) piperidin-4-ol]: the IC50 in test [1] worked out at 3.7 nM; in test [2], 2200 nM; in test [3], 331 nM; in test [4], 365 nM; in test [5] it was 367 nM; in test [6] it was 10.4 nM.
Turning to `CC(=O)Nc1ncc(S(=O)(=O)N2Cc3cccc(-c4cncn4CCc4ccc(F)cc4)c3C2)s1` [Compound 15, N-(5-((4-(1-(4-fluorophenethyl)-1H-imidazol-5-yl)isoindolin-2-yl)sulfonyl)thiazol-2-yl)acetamide], the IC50 in test [1] is 8 nM; in test [2], 1400 nM; in test [3], 155 nM; in test [4], 1230 nM; in test [5] it was more than 10000 nM; in test [6] it was 6.4 nM.
On to `O=C(c1cccnc1)N1CCCC1c1cccc(-c2cncn2CCc2ccc(F)cc2)c1` (single isomer, unassigned) [Compound 48a, (R or S)-(2-(3-(1-(4-fluorophenethyl)-1H-imidazol-5-yl)phenyl)pyrrolidin-1-yl) (pyridin-3-yl) methanone], for which the IC50 in test [1] was 32.3 nM; in test [2] it was 6800 nM; in test [3], 5430 nM; in test [4] it was more than 10000 nM; in test [5] it was 9300 nM; in test [6], 24.2 nM.
As to `CC(=O)Nc1ncc(S(=O)(=O)NCc2ccc(-c3cncn3CCc3ccc(F)cc3)cn2)s1` [Compound 11, N-(5-(N-((5-(1-(4-fluorophenethyl)-1H-imidazol-5-yl)pyridin-2-yl)methyl)sulfamoyl)thiazol-2-yl)acetamide], the IC50 in test [1] is more than 100 nM; in test [2], 8390 nM; in test [3], 912 nM; in test [4] it was 7470 nM; in test [5] it was more than 10000 nM; in test [6] it was 197 nM.
Consider `COc1ccc(OC)c(S(=O)(=O)N2CCCC2c2cccc(-c3cncn3CCc3ccc(F)cc3)c2)c1` (single isomer, unassigned) [Compound 53b, (R or S)-5-(3-(1-((2,5-Dimethoxy-phenyl)sulfonyl)pyrrolidin-2-yl)phenyl)-1-(4-fluorophenethyl)-1H-imidazole], for which the IC50 worked out at 2.1 nM in test [1]; 2330 nM in test [2]; 149 nM in test [3]; 216 nM in test [4]; 1470 nM in test [5]; 5.47 nM in test [6].
